SMILES strings stand for the structures. Some results are limits rather than exact numbers.

Data set [1] concerns the target T1, Serine/threonine-protein kinase TBK1 (Homo sapiens, UniProt Q9UHD2).
T1 sequence (Q9UHD2 whole entry): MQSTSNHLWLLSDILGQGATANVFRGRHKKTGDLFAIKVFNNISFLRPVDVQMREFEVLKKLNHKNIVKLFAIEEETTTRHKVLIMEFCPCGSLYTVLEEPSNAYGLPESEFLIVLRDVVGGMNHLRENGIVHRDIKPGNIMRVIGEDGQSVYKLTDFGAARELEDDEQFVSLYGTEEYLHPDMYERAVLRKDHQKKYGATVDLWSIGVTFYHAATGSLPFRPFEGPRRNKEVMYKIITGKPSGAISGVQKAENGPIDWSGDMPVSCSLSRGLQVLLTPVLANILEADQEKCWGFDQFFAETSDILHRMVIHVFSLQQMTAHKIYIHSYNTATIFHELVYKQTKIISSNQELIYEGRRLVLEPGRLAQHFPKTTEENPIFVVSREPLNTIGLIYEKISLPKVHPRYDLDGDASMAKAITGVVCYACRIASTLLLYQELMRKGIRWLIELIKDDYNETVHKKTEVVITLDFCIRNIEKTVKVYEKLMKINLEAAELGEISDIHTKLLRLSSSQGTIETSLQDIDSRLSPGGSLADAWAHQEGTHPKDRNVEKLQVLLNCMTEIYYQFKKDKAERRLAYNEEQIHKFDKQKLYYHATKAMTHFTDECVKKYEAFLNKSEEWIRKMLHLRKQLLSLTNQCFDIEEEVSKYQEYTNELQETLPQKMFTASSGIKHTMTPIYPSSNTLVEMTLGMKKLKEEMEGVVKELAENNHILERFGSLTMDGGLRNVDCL
Briefly: Inhibition of TBK1 by radiometry.

Data set [2] is described as follows: Metabolic stability in human liver microsomes assessed as compound turnover after 40 mins. The data set is classed as ADME, Microsome. The settings on record: read-out: Drug metabolism.
Data set [3] deals with T2, Serine/threonine-protein kinase TBK1 (Mus musculus, UniProt Q9WUN2).
T2 sequence (Q9WUN2 whole entry): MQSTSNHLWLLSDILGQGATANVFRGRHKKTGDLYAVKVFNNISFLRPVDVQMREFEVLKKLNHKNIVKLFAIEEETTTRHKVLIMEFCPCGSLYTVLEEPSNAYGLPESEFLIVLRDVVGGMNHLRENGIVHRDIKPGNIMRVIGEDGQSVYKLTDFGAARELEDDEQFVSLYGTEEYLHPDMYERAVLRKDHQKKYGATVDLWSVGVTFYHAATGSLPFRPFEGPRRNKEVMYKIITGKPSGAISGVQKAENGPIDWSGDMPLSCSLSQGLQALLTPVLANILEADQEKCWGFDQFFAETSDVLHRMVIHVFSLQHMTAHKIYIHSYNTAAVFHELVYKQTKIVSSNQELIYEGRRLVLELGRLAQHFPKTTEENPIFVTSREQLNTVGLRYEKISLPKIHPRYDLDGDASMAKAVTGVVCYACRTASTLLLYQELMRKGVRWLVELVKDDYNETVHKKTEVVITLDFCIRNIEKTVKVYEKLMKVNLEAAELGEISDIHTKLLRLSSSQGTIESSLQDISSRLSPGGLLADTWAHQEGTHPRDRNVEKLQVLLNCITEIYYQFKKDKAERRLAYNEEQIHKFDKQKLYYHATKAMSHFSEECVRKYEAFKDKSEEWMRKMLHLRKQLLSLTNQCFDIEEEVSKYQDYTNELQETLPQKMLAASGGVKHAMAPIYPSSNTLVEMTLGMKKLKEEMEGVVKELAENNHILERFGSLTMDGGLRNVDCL
Briefly: Inhibition of TBK1-mediated RANTES release in LPS-stimulated mouse RAW264.7 cells compound incubated for 30 mins prior LPS challenge measured after 6 hrs by ELISA. The data set is classed as cell-based.

Data set [4] in a line: Metabolic stability in mouse liver microsomes assessed as compound turnover after 30 mins. The settings on record: read-out: Drug metabolism. Format: ADME, Microsome.

In the case of `O=C(CCc1ccccc1)NCCCNc1nc(Nc2cccc(F)c2)ncc1Br`, the IC50 in data set [1] came out at 560 nM.
Same read-out and setting: the figure for `CC(C)c1cnc(Nc2cccc(F)c2)nc1NCCCNC(=O)C1CCC1` is above 1000 nM.
In the case of `Cc1nn(C)c2cc(Nc3ncc(C4CC4)c(NCCCNC(=O)C4CCC4)n3)ccc12`, the metabolised at 40 min in data set [2] came to 86%. Moreover, the half-inhibitory concentration (IC50) was 90 nM in data set [3] (read-out: IC50) and 7 nM in data set [1]. The metabolised at 0.5 h in data set [4] was found to be 41%.
As for `O=C(NCCCNc1nc(Nc2cncnc2)ncc1C1CC1)C1CCC1`, half-maximal inhibition in data set [1] (IC50) required 3200 nM.
With `O=C(NCCCNc1nc(Nc2cccc(-c3cnco3)c2)ncc1C1CC1)C1CCC1`, the metabolised at 40 min in data set [2] was found to be 26%. Further, the IC50 turned out to be 560 nM in data set [3] (read-out: IC50) and 11 nM in data set [1]. In addition, the metabolised at 0.5 h in data set [4] turned out to be 34%.
The compound `O=C(NCCCNc1nc(Nc2cccc(F)c2)ncc1Br)c1cccc(N2CCOCC2)c1` had an IC50 in data set [1] of 3600 nM.
With `O=C(NCCCNc1nc(Nc2cnn(C3CC3)c2)ncc1C1CC1)C1CCC1`, in data set [2], the metabolised at 40 min was found to be 32%. Moreover, the IC50 was 130 nM in data set [3] (read-out: IC50) and 10 nM in data set [1]. Also, the metabolised at 0.5 h in data set [4] amounted to 24%.
Regarding `O=C(NCCCNc1nc(Nc2cccc(N3CCOCC3)c2)ncc1C1CC1)C1CCC1`, the IC50 in data set [3] (read-out: IC50) stood at 580 nM; in data set [1], 28 nM.
As for `Cn1ncc2cc(Nc3ncc(C4CC4)c(NCCCNC(=O)C4CCC4)n3)ccc21`, in data set [2], the metabolised at 40 min is 42%. Besides, the concentration for half-maximal inhibition (IC50) in data set [3] (read-out: IC50) was 380 nM; in data set [1], 16 nM. The metabolised at 0.5 h in data set [4] turned out to be 40%.
Compound `O=C(NCCCNc1nc(NCc2ccc(F)cc2)ncc1C1CC1)c1cccs1` registered an IC50 in data set [1] above 10000 nM.
With `O=C(NCCCNc1nc(Nc2cnn(C3CCCC3)c2)ncc1C1CC1)C1CCC1`, the metabolised at 40 min in data set [2] is 67%. For the same compound, the IC50 amounted to 93 nM in data set [3] (read-out: IC50) and 4 nM in data set [1]. For the same compound, the metabolised at 0.5 h in data set [4] turned out to be 59%.
Take `O=C(NCCCNc1nc(Nc2ccccc2F)ncc1C1CC1)c1cccs1`: in data set [1], the IC50 was 820 nM.
Consider `O=C(NCCCNc1nc(Nc2cnn(CCN3CCOCC3)c2)ncc1C1CC1)C1CCC1`, for which the metabolised at 40 min in data set [2] amounted to 46%. Further, the results for the IC50 in data set [3] (read-out: IC50) and in data set [1] were 9000 nM and 9 nM, respectively. In addition, the metabolised at 0.5 h in data set [4] came to 68%.
`CN1CCC(C(=O)NCCCNc2nc(Nc3cccc(F)c3)ncc2Br)CC1` displayed an IC50 in data set [1] of 4300 nM.
Same read-out and setting: then `O=C(NCCCNc1nc(NC2CCCCC2)ncc1C1CC1)c1cccs1`, with above 10000 nM.
Take `O=C(NCCCNc1nc(Nc2cccc(Cn3cncn3)c2)ncc1C1CC1)C1CCC1`: the metabolised at 40 min in data set [2] is 63%. For the same compound, the values for the IC50 in data set [3] (read-out: IC50) and in data set [1] were 88 nM and 3 nM, respectively.
The compound `O=C(NCCCNc1nc(Nc2cccc(F)c2)ncc1Br)c1ccc(C(F)(F)F)cc1` registered an IC50 in data set [1] of 450 nM.
On to `CC(=O)N1CCC(C(=O)NCCCNc2nc(Nc3cccc(F)c3)ncc2Br)CC1`, for which half-maximal inhibition in data set [1] (IC50) was put at 430 nM.
As to `O=C(NCCCNc1nc(Nc2cnn(C3CCC3)c2)ncc1C1CC1)C1CCC1`, in data set [2], the metabolised at 40 min is 61%. The IC50 in data set [3] (read-out: IC50) was found to be 220 nM; in data set [1] it was 2 nM. For the same compound, the metabolised at 0.5 h in data set [4] came to 61%.
On to `Cn1ccc(Nc2ncc(C3CC3)c(NCCCNC(=O)C3CCC3)n2)n1`, for which, in data set [1], the 50% inhibitory concentration (IC50) was above 1000 nM.
The compound `O=C(NCCCNc1nc(Nc2cccc(NC(=O)N3CCCC3)c2)ncc1Br)c1cccs1` showed an IC50 in data set [1] of 6 nM.
The same measure, in the same setting: then `O=C(NCCCNc1nc(Nc2cccc(F)c2)ncc1CC1CC1)C1CCC1`, with above 1000 nM.
Turning to `CN1CCN(C(=O)c2ccc(Nc3ncc(C4CC4)c(NCCCNC(=O)C4CCC4)n3)cc2)CC1`, the values for the IC50 result in data set [3] (raw264.7) and in data set [1] were “Not Active” and 2 nM, respectively.
On to `CCc1cnc(Nc2cccc(F)c2)nc1NCCCNC(=O)C1CCC1`, for which half-maximal inhibition in data set [1] (IC50) required 63 nM.
On the same count and under the same terms, the figure for `O=C(NCCCNc1nc(Nc2cccc(F)c2)ncc1C1CC1)c1cccs1` is 110 nM; for `COCCC(=O)NCCCNc1nc(Nc2cccc(F)c2)ncc1Br` it is 60 nM; for `O=C(NCCCNc1nc(Nc2cccc(F)c2)ncc1Br)c1cnccn1` it is 22 nM.
Take `O=C(NCCCNc1nc(Nc2cccnc2)ncc1C1CC1)C1CCC1`: the concentration for half-maximal inhibition (IC50) in data set [3] (read-out: IC50) was above 1000 nM; in data set [1], 13 nM.

Values taken from ChEMBL document CHEMBL2203069, “Synthesis and structure-activity relationships of a novel series of pyrimidines as potent inhibitors of TBK1/IKKε kinases” (Bioorg Med Chem Lett, 2012).
